Values joined by “and” are separate entries in the source; they are usually repeats but may differ in a detail not shown here. Identical values can stand only once.
Assays:
[1] = test system: patients with mild cognitive impairment (MCI) due to Alzheimer's disease (AD) or with mild AD; experiment: Mini-Mental State Examination (MMSE), 12-week study (Example 1); format: in vivo, human; conditions: for subjects with an increase from screening of at least 1 in MMSE score: Day 84 (Visit 7)
Description: The MMSE is a questionnaire used extensively in clinical and research settings to measure mental function. It is commonly used to screen for dementia, and to assess the severity and progression of dementia. The MMSE is an effective way to document a human subject's response to treatment. The test examines functions including registration, attention and calculation, recall, language, ability to follow simple commands and orientation.
(§1) Investigators and patients were blind to the dosage strength. […] Patients were instructed to take doses within 30 minutes following a meal or snack, with each dose taken approximately 12 hours apart at the same times each day throughout the study.

interleukin-10 (IL-10) = experiment: CSF cytokine measurement (Mesoscale Discovery), IL-10, 6-week study; format: in vivo, human; conditions: day 41; after VX-745 reached Cmax in the plasma
Protocol: (§2) Cytokine measurements of CSF samples were done to assess the balance of pro-inflammatory versus anti-inflammatory cytokines. The t-helper type 1/t-helper type 2 (TH1/TH2) multiplex cytokine (IFN-γ, IL-1β, IL-2, IL-4, IL-5, IL-8, IL-10, IL-12p70, IL-13, TNFα ) panel by Mescoscale Discovery were utilized to inform on effects on the relative balance of pro-inflammatory cytokines (e.g. IL-1β, TNFα) versus anti-inflammatory cytokines (e.g., IL-10).
(§3) Target engagement was assessed through the evaluation of the effect of drug treatment on CSF biomarkers. CSF was collected at 6 time-points over 24 hours at baseline (the 24 hours prior to first dose) and again at 6 time-points over 24 hours near the end of treatment on Day 40. The samples were evaluated by the Mesoscale Discovery ELISA platform for multiple cytokines ((IFN-γ, IL-1β, IL-2, IL-4, IL-5, IL-8, IL-12 protein 70, IL-13, TNFα, and CSF) and for amyloid-beta peptides (Aβ 38/40/42).

[2] = Plasma and CSF pharmacokinetics, 6-week Phase IIa study (Example 2); format: in vivo, human
Protocol: Investigators and patients were blinded to the dosage strength. The first 3 patients were randomly assigned to receive either 40 or 125 mg twice daily, with dosing level blinded. The remaining patients (up to 7 patients) received 40 mg twice daily on an open-label basis. […] Patients were instructed to eat a meal approximately 30 minutes before dosing with VX 745 with each dose taken approximately 12 hours (+/−3 hours) apart at the same times each day throughout the study.
(§4) Quantitative EEG was conducted as a measure of the effects of inflammatory cytokines on synaptic function and the effects of modulation of p38 MAPK on synaptic plasticity. Brain fluorodeoxyglucose (FDG) PET scan was conducted at the Screening Visit and Day 40 to measure brain metabolism. In addition, CSF drug levels of VX-745 were obtained to confirm delivery of drug to the brain.

brain metabolism = experiment: Brain FDG PET scan, 6-week study; format: in vivo, human; conditions: baseline to day 40
Protocol: as §4

[3] = Brain versus blood exposure in animals (preclinical PK); format: in vivo; conditions: brain relative to peripheral blood, read-out: exposure in the brains of animals relative to peripheral blood
[4] = test system: patients with mild cognitive impairment (MCI) due to Alzheimer's disease (AD) or with mild AD; experiment: Wechsler Memory Scale (WMS) immediate and delayed recall, 12-week study (Example 1); format: in vivo, human; conditions: for patients with improvement from baseline, WMS delayed recall composite score / patients with improvement from baseline, WMS immediate recall composite score: day 84
Protocol: In this study, episodic memory was evaluated using the Dutch version of the WMS scale utilizing both verbal and visual information: Logical Memory (LM I & II) test, in which subject is read a story; Verbal-Paired Associates (VPA I & II), in which subject is given pairs of words and asked remember which words go together; and Visual Reproduction (VR I & II)), in which subject is given drawings of specific shapes. Subjects were then asked to recall the information within each test both in an immediate (WMS-Immediate Recall composite) and delayed (WMS-Delayed Recall composite) basis. The total score of the WMS-Immediate Recall component could range from 0 to 136 (0-53 for LMI; 0-40 for VPA I, and 0-43 VR I) and for the WMS-Delayed Recall from 0 to 92 (0-39 for LM II; 0-10 for VPA II, and 0-43 VR II).
Further analysis included Wechsler Memory Scale (WMS) Analyses. The WMS includes three subcategories: immediate recall, delayed recall, and symbol span, each with distinct assessments. Results can be analyzed as two distinct composites scores or as an overall composite score. This evaluation included the overall (score range: 0 to 401), immediate recall (score range: 0 to 136), and delayed recall (score range: 0 to 92) composite scores; the latter two are considered measures of episodic memory. In addition, the Symbol Span sub-component of WMS was analyzed separately (score range: 0 to 50). In all cases, higher scores reflect better cognitive performance.

[5] = Plasma pharmacokinetics, 12-week Phase IIa study (Example 1); format: in vivo, human; conditions: 40 mg dose level, twice daily, 12-week study
Protocol: as §1
Dosing started on Day 1 following completion of all baseline procedures. During the treatment period, subjects returned to the clinic on Days 14, 28, 56, and 84. […] Dynamic PET scanning with fill quantitative analysis was performed at baseline and at the end of treatment.
Sixteen subjects completed the full 12 weeks of treatment and all were included in safety analyses. […] In the PK analysis, due to the sparse sampling collection design, the time period from 0 to 24 hours post-dose was divided into 4 blocks in order to show the distribution of concentrations over time. […] Average blood concentration of about 8 ng/mL at the 40 mg dose level was observed. This is higher than the 5 ng/mL.

interleukin-8 (IL-8) = experiment: CSF cytokine measurement (Mesoscale Discovery), IL-8, 6-week study; format: in vivo, human; conditions: high exposure group by plasma AUC(0-8) on Day 1
Protocol: as §2, §3

synaptic function = experiment: Quantitative EEG, 6-week study; format: in vivo, human
Protocol: as §4

[6] = Example 1 study (N = 15), Wechsler Memory Scale

O=c1ncn2nc(Sc3ccc(F)cc3F)ccc2c1-c1c(Cl)cccc1Cl [VX-745]
subjects with an increase from screening of at least 1 in MMSE score ([1]; 40 mg group): approximately 50% | patients with greater than a 3-point improvement in MMSE score over baseline ([1]; 40 mg group, FIG. 2): two of four | subjects with an increase from screening of at least 1 in MMSE score ([1]; 125 mg group): ~33% | CSF IL-10 change from baseline (interleukin-10 (IL-10)): decreased rapidly | average blood drug concentration (CAVG) ([2]; 40 mg twice daily): 8 ng/mL | expected VX-745 concentrations in the brain ([2]; extrapolated from CSF/plasma and preclinical data): ~14 ng/mL and ~30 nM | Kp ([2]; human, CSF relative to plasma, oral, same time point, read-out: CSF drug levels as share of plasma drug levels): 0.06 | half-life ([2]; human, oral, 6-week study plasma PK, read-out: terminal half-life (converted)): 10 h | Cmax ([2]; human, plasma, oral, 40 mg twice daily): 23 ng/mL | FDG-PET (brain metabolism): no change | Kp [3]: ~1.7 | patients with improvement from baseline, WMS delayed recall composite score ([4]; 40 mg group): 8 of 8 | patients with improvement from baseline, WMS immediate recall composite score ([4]; 40 mg group): 7 of 8 | patients with improvement from baseline, WMS delayed recall composite score ([4]; 125 mg group): 6 of 7 | patients with improvement from baseline, WMS immediate recall composite score ([4]; 125 mg group): 6 of 7 | change in all subcomponents of WMS episodic memory composites ([4]; Day 84): statistically significant (P<0.05) increases | Mean WMS delayed recall composite score ([4]; Day 84, combined doses, baseline 13.2 (±2.3), p<0.001): 22.1 (±4.1) | Mean WMS immediate recall composite score ([4]; Day 84, n=15 combined doses, baseline 48.4 (±3.8), p=0.005): 58.4 (±4.3) | Calculated within-subject treatment effect size (Cohen's d), Delayed Recall [4, 6]: .69 | Calculated within-subject treatment effect size (Cohen's d), Immediate Recall [4, 6]: .59 | WMS immediate and delayed recall, cognitive analysis ([4]; nearly all patients, regardless of effect on amyloid plaque): dose dependent improvement | Average blood concentration [5]: about 8 ng/mL | CSF IL-8, Day 41 vs baseline at matched time points (interleukin-8 (IL-8)): trend towards lower CSF IL-8 | EEG (synaptic function): potential positive pharmacodynamics effect

From US10420770B2, “Compositions and methods for treating dementia” (EIP Pharma, LLC, priority 2016, dated 2019)
